Measurements taken from article PMC6009956, “Design, synthesis and biological activity of N^4-phenylsubstituted-7H-pyrrolo[2,3-d]pyrimidin-4-amines as dual inhibitors of aurora kinase A and epidermal growth factor receptor kinase” (Journal of Enzyme Inhibition and Medicinal Chemistry, 2017).
Like-named read-outs stand apart in the source and are kept apart here.

Tests used:
[1] = system: CAL cells; assay: Proliferation (cell counting), CAL; format: cell-based; conditions: 100 µM
Protocol: (§1) FADU, BHY, SAS and CAL cell lines were obtained from ATCC-LGC and were cultured in DMEM (Invitrogen, Germany) supplemented with 10% of heat activated bovine serum (FBS, PAA, Germany), 1% of glutamine, 1% of penicillin-streptomycin (Invitrogen, Germany). To measure proliferation, SCCHN cells were split, reseeded (5 × 10^5 in 25 cm^2 flasks) and counted at the indicated time points. Cells were then replated at the initial density. The fold increase in cell number was calculated, all given results are based on triplicate experiments. To assess cell death 5 × 10^5 cells were stained with propidium iodide (PI, Sigma, Germany). Following incubation, cells were washed, resuspended in PBS, and analysed by flow cytometry. The fraction of PI-positive cells is reported as dead cell fraction.
(§2) Figure 3. […] Cells were incubated with compound 2 for 48 h and then subjected to PI staining and FACS analysis. PI-positive cell fraction as measure of cell death is reported. (B) Four SCCHN cell lines were incubated with 100 μM of compound 2 and counted on the indicated days. Experiments in triplicates, fold growth shown. (C) EGFR expression of SCCHN cell lines. EGFR high and low as detected by western blot analysis (D) The SCCHN cell lines were incubated with 100 μM of compound 2 for 72 h. Percent PI positive cells are given. Experiments in triplicates.

[2] = target: T1, EGFR (Homo sapiens, UniProt P00533); assay: DiscoverX competition binding assay, EGFR; set-up: purchased DiscoverX Corporation (assay run externally by the vendor); conditions: read-out: Binding constant (Kd) EGFR
Protocol: The assay was performed externally at DiscoverX Corporation using a competition binding assay that quantitatively measures the ability of a compound to compete with an immobilised, active-site directed ligand[24]. The assay is performed by combining three components: DNA-tagged kinase, immobilised ligand and a test compound. The ability of the test compound to compete with the immobilised ligand was measured via quantitative PCR of the DNA tag. An 11-point 3-fold serial dilution of each test compound was prepared in 100% of DMSO at 100× final test concentration and subsequently diluted to 1× in the assay (final DMSO concentration = 1%). […] Binding constants (Kd) were calculated with a standard dose-response curve using the Hill equation.
Binding Affinities for EGFR, AURKA and AURKB
The assay was performed externally at DiscoverX Corporation using a competition binding assay that quantitatively measures the ability of a compound to compete with an immobilized, active-site directed ligand for target kinases AURKA, AURKB and EGFR.23 The assay is performed by combining three components: DNA-tagged kinase; immobilized ligand; and a test compound. The ability of the test compound to compete with the immobilized ligand was measured via quantitative PCR of the DNA tag. […] Compound Kds were determined using a compound top […]

[3] = system: EGFR (pEGFR, pERK, p-AKT) in BHY cells; assay: Western blot of EGFR downstream targets in BHY cells; format: cell-based; conditions: 100 μM
Protocol: Protein extracts (50 μg per lane) were electrophoretically separated on SDS-PAGE gels, transferred to membranes (Protran, Schleicher & Schuell, Dassel, Germany) and blotted with specific antibodies (actin, aurora A, aurora B: all from Sigma, Munich, Germany; S10-HH3: Millipore, Schwalbach, Germany; EGFR: Santa Cruz, Heidelberg, Germany; pEGFR: Invitrogen, Darmstadt, Germany; pAKT, pERK: both from New England Biolabs, Frankfurt, Germany).
Figure 4. Effects of compound 2 on EGFR and aurora kinases in growing SCCHN cell lines (A) Western blot analysis of EGFR (pEGFR, pERK, p-AKT) and aurora A (p-HH3) downstream target proteins following incubation with 100 μM compound 2 for the indicated time points in BHY and FADU SCCHN cell lines. (B) BHY and CAL cell lines treated for the indicated time points with 200 nM cetuximab. Western blot analysis of EGFR downstream targets. (long exposure and short exposure). […] Western blot analysis of p-HH3 at the indicated time points. Asterisk (*) represents unspecific band.

[4] = system: CAL cells; assay: Cell killing, PI staining and FACS, CAL; format: cell-based; conditions: 100 µM, 72 h
Protocol: as §1, §2

[5] = system: BHY cells; assay: Cell killing, PI staining and FACS, BHY; format: cell-based
Protocol: as §1, §2

[6] = system: FADU and BHY cell lines; assay: Cell cycle analysis (PI, flow cytometry); format: cell-based; conditions: 100 μM, 24 and 48 h; more pronounced in BHY
Protocol: For analysis of cell cycle distribution, cells were fixed with 70% of ethanol and stained with PI. Flow cytometric analysis of DNA content was performed using PI in the FL2 chanel in linear mode. Cells with less than diploid DNA content were considered dead (sub-G1).
Figure 5. Cell cycle analysis of FADU and BHY cell lines incubated for 24 and 48 h with 100 μM of compound 2. Cell cycle distribution according to PI uptake, shown is the cell fraction subG1 for cell death and in G1, S and G2M phase of the cell cycle. n = 3, * p < .01, ** p < .001.

[7] = system: FADU cells; assay: Cell killing, PI staining and FACS, FADU; format: cell-based
Protocol: as §1, §2

[8] = system: SAS cells; assay: Cell killing, PI staining and FACS, SAS; format: cell-based; conditions: 100 µM, 72 h
Protocol: as §1, §2

[9] = target: T1, EGFR; assay: ADP-Glo kinase assay, EGFR; format: biochemical; set-up: purchased BPS Bioscience (assay run externally by the vendor)

T1 sequence (P00533 25-1210): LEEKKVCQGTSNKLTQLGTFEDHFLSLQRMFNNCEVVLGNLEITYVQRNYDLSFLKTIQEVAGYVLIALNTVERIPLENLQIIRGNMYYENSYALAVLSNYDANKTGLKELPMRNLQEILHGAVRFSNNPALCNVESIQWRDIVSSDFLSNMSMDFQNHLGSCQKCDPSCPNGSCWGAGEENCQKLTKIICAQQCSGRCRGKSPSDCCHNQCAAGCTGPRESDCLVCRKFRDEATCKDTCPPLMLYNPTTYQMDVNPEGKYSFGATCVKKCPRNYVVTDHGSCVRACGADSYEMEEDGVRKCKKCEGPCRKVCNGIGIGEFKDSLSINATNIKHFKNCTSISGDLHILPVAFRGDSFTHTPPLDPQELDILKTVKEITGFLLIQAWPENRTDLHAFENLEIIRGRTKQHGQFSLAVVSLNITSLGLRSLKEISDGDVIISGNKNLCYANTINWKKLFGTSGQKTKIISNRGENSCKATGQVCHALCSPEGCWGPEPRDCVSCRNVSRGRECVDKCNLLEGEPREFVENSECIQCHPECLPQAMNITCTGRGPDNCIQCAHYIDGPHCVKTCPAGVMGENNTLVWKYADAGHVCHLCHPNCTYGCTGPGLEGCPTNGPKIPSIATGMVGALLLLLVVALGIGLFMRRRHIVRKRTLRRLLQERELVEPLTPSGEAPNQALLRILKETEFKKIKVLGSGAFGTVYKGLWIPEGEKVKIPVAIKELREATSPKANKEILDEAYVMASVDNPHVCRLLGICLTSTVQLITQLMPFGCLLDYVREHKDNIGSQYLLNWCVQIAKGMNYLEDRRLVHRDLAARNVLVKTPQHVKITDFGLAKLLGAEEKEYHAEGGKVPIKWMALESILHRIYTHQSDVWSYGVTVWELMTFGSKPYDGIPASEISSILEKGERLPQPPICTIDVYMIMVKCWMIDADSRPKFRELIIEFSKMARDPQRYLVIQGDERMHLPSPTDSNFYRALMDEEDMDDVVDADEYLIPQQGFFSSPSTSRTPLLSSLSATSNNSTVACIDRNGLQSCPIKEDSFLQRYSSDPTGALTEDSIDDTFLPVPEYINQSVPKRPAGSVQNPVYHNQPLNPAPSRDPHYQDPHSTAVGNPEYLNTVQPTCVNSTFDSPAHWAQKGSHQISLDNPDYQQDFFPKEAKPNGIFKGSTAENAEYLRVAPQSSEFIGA

Kd [2]: 67 nM
EGFR inhibition (in words) [9]: single-digit nanomolar EGFR inhibition
IC50 ([9]; 10 µM ATP, triplicate, read-out: EGFR IC50 ± SD): 3.76 ± 0.12 nM
IC50 ([9]; 10 µM ATP/0.2 mg/ml Poly-Glu-Tyr, read-out: EGFR IC50 (dose-response curve, supplement)): 3.8 nM
EGFR % Activity Set1 ([9]; Log[nM] 0): 43%
EGFR % Activity Set2 ([9]; Log[nM] 0): 41%
EGFR % Activity Set3 ([9]; Log[nM] 0): 41%
EGFR % Activity Set1 ([9]; Log[nM] 1.0): 29%
EGFR % Activity Set2 ([9]; Log[nM] 1.0): 29%
EGFR % Activity Set3 ([9]; Log[nM] 1.0): 28%
EGFR % Activity Set1 ([9]; Log[nM] 1.5): 11%
EGFR % Activity Set2 ([9]; Log[nM] 1.5): 9%
EGFR % Activity Set3 ([9]; Log[nM] 1.5): 11%
EGFR % Activity Set1 ([9]; Log[nM] 2.0): 6%
EGFR % Activity Set2 ([9]; Log[nM] 2.0): 6%
EGFR % Activity Set3 ([9]; Log[nM] 2.0): 6%
EGFR % Activity Set1 ([9]; Log[nM] 2.5): 3%
EGFR % Activity Set2 ([9]; Log[nM] 2.5): 2%
EGFR % Activity Set3 ([9]; Log[nM] 2.5): 3%
EGFR % Activity Set1 ([9]; Log[nM] 3.0): 1%
EGFR % Activity Set2 ([9]; Log[nM] 3.0): 1%
EGFR % Activity Set3 ([9]; Log[nM] 3.0): 1%
EGFR % Activity Set1 ([9]; Log[nM] 3.5): 1%
EGFR % Activity Set2 ([9]; Log[nM] 3.5): 1%
EGFR % Activity Set3 ([9]; Log[nM] 3.5): 0%
EGFR % Activity Set1 ([9]; Log[nM] 4.0): 0%
EGFR % Activity Set2 ([9]; Log[nM] 4.0): 0%
EGFR % Activity Set3 ([9]; Log[nM] 4.0): 0%
EGFR % Activity Set1 ([9]; Log[nM] 4.5): 0%
EGFR % Activity Set2 ([9]; Log[nM] 4.5): 0%
EGFR % Activity Set3 ([9]; Log[nM] 4.5): 0%
EGFR % Activity Set1 ([9]; Log[nM] 5.0): 0%
EGFR % Activity Set2 ([9]; Log[nM] 5.0): 0%
EGFR % Activity Set3 ([9]; Log[nM] 5.0): 0%
SMILES: Brc1cccc(Nc2ncnc3[nH]ccc23)c1 [Compound 2, N^4-(3-bromophenyl)-7H-pyrrolo[2,3-d]pyrimidine-4-amine]
Cell growth (fold growth) [1]: completely inhibited cell growth
EGFR-mediated phosphorylation steps (pEGFR, pERK, p-AKT) [3]: modified
Cell killing (PI positive cells) [4]: efficient cell killing
Cell killing (PI positive cells) ([5]; 100 µM, 72 h): efficient cell killing
IC50 ([5]; 48 h, read-out: IC50 cellular killing (PI-positive fraction)): 150000 nM
Cell cycle distribution [6]: cell cycle arrest in G2M
Cell killing (PI positive cells) ([7]; FADU, 100 µM, 72 h): efficient cell killing
IC50 ([7]; Homo sapiens, FaDu, 48 h, read-out: IC50 cellular killing (PI-positive fraction)): 150000 nM
Cell killing (PI positive cells) [8]: efficient cell killing
